Target: T1, squalene synthetase (Rattus norvegicus, UniProt Q02769)
T1 construct: from tissue; host or cells: rat liver microsomes (lovastatin-fed male Charles River CD rats)
T1 sequence (Q02769 1-416): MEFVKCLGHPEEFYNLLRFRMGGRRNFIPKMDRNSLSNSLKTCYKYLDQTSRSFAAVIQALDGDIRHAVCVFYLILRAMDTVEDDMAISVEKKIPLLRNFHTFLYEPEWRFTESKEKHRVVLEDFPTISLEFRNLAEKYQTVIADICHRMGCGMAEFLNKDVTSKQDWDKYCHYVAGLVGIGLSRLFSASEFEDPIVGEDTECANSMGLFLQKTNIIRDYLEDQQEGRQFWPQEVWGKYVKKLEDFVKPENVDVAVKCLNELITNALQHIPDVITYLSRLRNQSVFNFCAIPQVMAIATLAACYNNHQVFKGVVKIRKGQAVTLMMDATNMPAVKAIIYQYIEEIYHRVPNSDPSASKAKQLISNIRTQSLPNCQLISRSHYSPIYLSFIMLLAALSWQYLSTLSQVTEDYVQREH
Assay: Squalene synthetase assay (rat liver microsomes, [4-14C]farnesyl-pyrophosphate)
Type: biochemical
Details: rat liver microsomal protein, 30° C., 20 minutes; read-out: IC50 squalene synthetase inhibition
Method: The intrinsic squalene synthetase inhibitory activity of representative compounds of this invention was measured by the standard in vitro protocol described below:
Male, Charles River CD rats (120 to 150 g) were fed a diet containing 0.1% lovastatin for 4 days. The livers from these rats were homogenized in 5 volumes (ml/g) of ice cold 50 Mm HEPES (4-(2-hydroxyethyl)-1-piperazine-ethanesulfonic acid), 5 mM EDTA(ethylenediaminetetraacetic acid) pH 7.5 with a Potter-Elvehjem type tissue grinder. The homogenate was centrifuged twice at 20,000×g for 15 minutes at 4,C, discarding the pellet each time. The supernatant was then centrifuged at 100,000×g for 1 hour at 4° C. The resulting microsomal pellet was resuspended in a volume of the above homogenizing buffer equal to one-fifth the volume of the original homogenate. This microsomal preparation has a protein concentration of about 7 mg/ml. The microsomal suspensions were stored in aliquots at -70° C. Squalene synthetase activity in these aliquots is stable for at least several months. […]
This assay mix was degassed under a vacuum and flushed with N2. […] Ten ml of scintillation fluid was added to the heptane solution and radioactivity was determined by liquid scintillation counting. […]
IC50 values were determined by plotting the log of the concentration of the test compound versus the percentage inhibition. […]

`C=C(CC[C@@]12C[C@@H](OC(=O)/C=C/C(C)CC(C)CC)[C@@](C(=O)O)(O1)[C@](O)(C(=O)O)[C@@H](C(=O)O)O2)C(OC(C)=O)C(C)Cc1ccccc1` (stereo partly shown) [Compound A] gave an IC50 of 0.95 nM.

Reference: patent US5262435A, “Cholesterol lowering compounds” (Merck & Co., Inc., priority 1992, dated 1993)
